In PubChem BioAssay (NCI):
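Here, GI50 denotes the concentration required for 50% inhibition of growth. Definition used: TGI = concentration required for complete inhibition of growth.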

Tests used:
Experiment in all cases: inhibition of tumour cell growth, NCI panel, 384-well format
CCRF-CEM leukemia = tested on: CCRF-CEM leukemia
SNB-19 CNS = tested on: SNB-19 CNS
MDA-MB-435 melanoma = tested on: MDA-MB-435 melanoma
MDA-MB-468 breast = tested on: MDA-MB-468 breast
LOX IMVI melanoma = tested on: LOX IMVI melanoma
SNB-75 CNS = tested on: SNB-75 CNS
SF-295 CNS = tested on: SF-295 CNS
UO-31 renal = tested on: UO-31 renal
HS 578T breast = tested on: HS 578T breast
SW-620 colon = tested on: SW-620 colon
NCI-H23 lung = tested on: NCI-H23 lung
BT-549 breast = tested on: BT-549 breast
SK-MEL-28 melanoma = tested on: SK-MEL-28 melanoma
HCC-2998 colon = tested on: HCC-2998 colon
NCI-H460 NSCLC = tested on: NCI-H460 NSCLC
RPMI-8226 leukemia = tested on: RPMI-8226 leukemia
IGROV1 ovarian = tested on: IGROV1 ovarian
NCI/ADR-RES ovarian = tested on: NCI/ADR-RES ovarian
OVCAR-8 ovarian = tested on: OVCAR-8 ovarian
HL-60(TB) leukemia = tested on: HL-60(TB) leukemia
PC-3 prostate = tested on: PC-3 prostate
RXF 393 renal = tested on: RXF 393 renal
SK-MEL-5 melanoma = tested on: SK-MEL-5 melanoma
A498 renal = tested on: A498 renal
DU-145 prostate = tested on: DU-145 prostate
K-562 leukemia = tested on: K-562 leukemia
ACHN renal = tested on: ACHN renal
EKVX NSCLC = tested on: EKVX NSCLC
U251 glioblastoma = tested on: U251 glioblastoma
HCT-116 colon = tested on: HCT-116 colon
NCI-H322M lung = tested on: NCI-H322M lung
A549 NSCLC = tested on: A549 NSCLC
UACC-257 melanoma = tested on: UACC-257 melanoma
HCT-15 colon = tested on: HCT-15 colon
NCI-H226 lung = tested on: NCI-H226 lung
OVCAR-3 ovarian = tested on: OVCAR-3 ovarian
SR leukemia = tested on: SR leukemia
HOP-62 NSCLC = tested on: HOP-62 NSCLC
MCF7 breast = tested on: MCF7 breast
TK-10 renal = tested on: TK-10 renal
T-47D breast = tested on: T-47D breast
M14 melanoma = tested on: M14 melanoma
OVCAR-4 ovarian = tested on: OVCAR-4 ovarian
SK-OV-3 ovarian = tested on: SK-OV-3 ovarian
HT29 colon = tested on: HT29 colon
MDA-MB-231 breast = tested on: MDA-MB-231 breast
KM12 colon = tested on: KM12 colon
MALME-3M melanoma = tested on: MALME-3M melanoma
SF-268 CNS = tested on: SF-268 CNS
SF-539 CNS = tested on: SF-539 CNS
CAKI-1 renal = tested on: CAKI-1 renal
COLO 205 colon = tested on: COLO 205 colon
786-0 renal = tested on: 786-0 renal
NCI-H522 lung = tested on: NCI-H522 lung
UACC-62 melanoma = tested on: UACC-62 melanoma
HOP-92 NSCLC = tested on: HOP-92 NSCLC
MOLT-4 leukemia = tested on: MOLT-4 leukemia
SN12C renal = tested on: SN12C renal

CNc1ncc2cc(-c3cc(NC(=O)NCCC(C)(C)C)c(F)cc3C)c(C)nc2n1
GI50 (CCRF-CEM leukemia): 495 nM | TGI (CCRF-CEM leukemia): 18.3 µM | GI50 (SNB-19 CNS): 1550 nM | TGI (SNB-19 CNS): 71 µM | GI50 (MDA-MB-435 melanoma): 33.6 nM | TGI (MDA-MB-435 melanoma): 27.3 µM | GI50 (MDA-MB-468 breast): 12.8 µM | TGI (MDA-MB-468 breast): 35.2 µM | GI50 (LOX IMVI melanoma): 27.7 nM | TGI (LOX IMVI melanoma): 237 nM | GI50 (SNB-75 CNS): 361 nM | TGI (SNB-75 CNS): 15.4 µM | GI50 (SF-295 CNS): 1200 nM | TGI (SF-295 CNS): > 100 µM | GI50 (UO-31 renal): 210 nM | TGI (UO-31 renal): 23.6 µM | GI50 (HS 578T breast): 354 nM | TGI (HS 578T breast): 7.89 µM | GI50 (SW-620 colon): 334 nM | TGI (SW-620 colon): 15.4 µM | GI50 (NCI-H23 lung): 47.2 nM | TGI (NCI-H23 lung): 443 nM | GI50 (BT-549 breast): 1260 nM | TGI (BT-549 breast): 19.9 µM | GI50 (SK-MEL-28 melanoma): < 10 nM | TGI (SK-MEL-28 melanoma): 35.9 nM | GI50 (HCC-2998 colon): 127 nM | TGI (HCC-2998 colon): 11.5 µM | GI50 (NCI-H460 NSCLC): 302 nM | TGI (NCI-H460 NSCLC): 13.8 µM | GI50 (RPMI-8226 leukemia): 162 nM | TGI (RPMI-8226 leukemia): 585 nM | GI50 (IGROV1 ovarian): 157 nM | TGI (IGROV1 ovarian): 1050 nM | GI50 (NCI/ADR-RES ovarian): 3.08 µM | TGI (NCI/ADR-RES ovarian): 83.7 µM | GI50 (OVCAR-8 ovarian): 489 nM | TGI (OVCAR-8 ovarian): 48.9 µM | GI50 (HL-60(TB) leukemia): 17.1 nM | TGI (HL-60(TB) leukemia): 130 nM | GI50 (PC-3 prostate): 13.3 µM | TGI (PC-3 prostate): > 100 µM | GI50 (RXF 393 renal): 440 nM | TGI (RXF 393 renal): 10.5 µM | GI50 (SK-MEL-5 melanoma): 38.2 nM | TGI (SK-MEL-5 melanoma): 4.2 µM | GI50 (A498 renal): 294 nM | TGI (A498 renal): > 100 µM | GI50 (DU-145 prostate): 652 nM | TGI (DU-145 prostate): 32.4 µM | GI50 (K-562 leukemia): 126 nM | TGI (K-562 leukemia): 284 nM | GI50 (ACHN renal): 250 nM | TGI (ACHN renal): 19.1 µM | GI50 (EKVX NSCLC): 2090 nM | TGI (EKVX NSCLC): 82.4 µM | GI50 (U251 glioblastoma): 506 nM | TGI (U251 glioblastoma): 13 µM | GI50 (HCT-116 colon): 58.5 nM | TGI (HCT-116 colon): 916 nM | GI50 (NCI-H322M lung): 318 nM | TGI (NCI-H322M lung): 12.9 µM | GI50 (A549 NSCLC): 711 nM | TGI (A549 NSCLC): 15.2 µM | GI50 (UACC-257 melanoma): 16.6 nM | TGI (UACC-257 melanoma): 119 nM | GI50 (HCT-15 colon): 525 nM | TGI (HCT-15 colon): 38.6 µM | GI50 (NCI-H226 lung): 299 nM | TGI (NCI-H226 lung): 15.7 µM | GI50 (OVCAR-3 ovarian): 1230 nM | TGI (OVCAR-3 ovarian): 55.8 µM | GI50 (SR leukemia): 181 nM | TGI (SR leukemia): 385 nM | GI50 (HOP-62 NSCLC): 367 nM | TGI (HOP-62 NSCLC): 15.9 µM | GI50 (MCF7 breast): 7.04 µM | TGI (MCF7 breast): > 100 µM | GI50 (TK-10 renal): 599 nM | TGI (TK-10 renal): 4.67 µM | GI50 (T-47D breast): 2400 nM | TGI (T-47D breast): 37.7 µM | GI50 (M14 melanoma): < 10 nM | TGI (M14 melanoma): 36.4 nM | GI50 (OVCAR-4 ovarian): 18.3 µM | TGI (OVCAR-4 ovarian): > 100 µM | GI50 (SK-OV-3 ovarian): 303 nM | TGI (SK-OV-3 ovarian): 4.16 µM | GI50 (HT29 colon): 26.8 nM | TGI (HT29 colon): 13.1 µM | GI50 (MDA-MB-231 breast): 47.9 nM | TGI (MDA-MB-231 breast): 397 nM | GI50 (KM12 colon): 501 nM | TGI (KM12 colon): 38.3 µM | GI50 (MALME-3M melanoma): < 10 nM | GI50 (SF-268 CNS): 1090 nM | TGI (SF-268 CNS): 16.1 µM | GI50 (SF-539 CNS): 1750 nM | TGI (SF-539 CNS): 19.2 µM | GI50 (CAKI-1 renal): 134 nM | TGI (CAKI-1 renal): 1230 nM | GI50 (COLO 205 colon): 14.4 nM | TGI (COLO 205 colon): 543 nM | GI50 ([…]-0 renal): 676 nM | TGI (786-0 renal): 39.1 µM | GI50 (NCI-H522 lung): 670 nM | TGI (NCI-H522 lung): 9.38 µM | GI50 (UACC-62 melanoma): < 10 nM | TGI (UACC-62 melanoma): 51.7 nM | GI50 (HOP-92 NSCLC): 166 nM | TGI (HOP-92 NSCLC): 409 nM | GI50 (MOLT-4 leukemia): 360 nM | TGI (MOLT-4 leukemia): 15.4 µM | GI50 (SN12C renal): 173 nM | TGI (SN12C renal): 889 nM
